From US20010006660A1, “LOW-RIGIDITY LIPOSOMAL FORMULATION” (priority 1999, published 2001)

Tests used:
[1] = Phase transition / destabilization temperature by differential scan calorimetry; format: physicochemical
Method: The formulations of liposomes were assessed for their ability to fuse with bacteria. The liposomes were prepared as described above and contained different lipid mixtures. These lipid mixtures were dipalmitoylphosphatidylcholine (DPPC): dimirystoylphosphatidylglycerol (DMPG), DPPC: soybean 1-α-phosphatidylinositol, sodium salt, (PI), and 1,2-di-o-hexadecyl-sn-glycero-3-phosphocholine (DHPC): DMPG. All lipid mixtures were used at ratios of 10:1. PI is negatively charged with a phase transition temperature (Tc) of 23° C., while DHPC is neutral with a Tc of 42° C. All three formulations have a Tc of about 29.5° C. […] The bacterial strain used was Pseudomonas aeruginosa strain 429.
Different tobramycin-encapsulated liposomal formulations were prepared according to Example 1 and analyzed by differential scan colorimetry. Using differential scan calorimetry, the temperatures of phase transition (TC) were calculated for the tobramycin-liposomal formulations listed in Table 2. All these formulations were then listed in vitro to assess the antibiotic kinetics of liberation from the liposomes. In addition, these formulations were tested in a non-infected mouse model as previously described (Omri et al. 1994, Antimicrob. Agents Chemother. 38:1090-1095) to assess the persistence of the liposomes in the lung.

[2] = tested on: Pseudomonas aeruginosa PA 508 (mucoid phenotype); experiment: Bactericidal activity in rat model of chronic pulmonary infection (agar beads); format: in vivo; details: Sprague-Dawley rats
Method: To evaluate the bactericidal efficacy of a liposomal aminoglycoside formulation produced according to the present invention, male, pathogen-free, Sprague-Dawley rats weighing 175 to 225 g (Charles River) were used. Chronic infection in lungs was established by intratracheal administration of 5×10^5 CFU of Pseudomonas aeruginosa PA 508 (mucoid phenotype) prepared in agar beads. After 3 days, three doses (600 μg) of free or liposome-encapsulated tobramycin were given intratracheally at intervals of 16 h. The lipid mixture were DPPC:DMPG at a molar ratio of 10:1 (formula no 1) and DPPC:DMPC at a molar ration of 15:1 (formula no 2). Sixteen hours after the last treatment, the animals were sacrificed and the entire lungs were removed aseptically, weighed, and homogeneized as described previously for mice. Serial 10-fold dilutions of the homogenates in cold PBS were made and spread in triplicate on proteose peptone agar plates. Identification of P. aeruginosa was confirmed by specific cultures. CFU were counted after 24 hour incubations at 37° C. under 5% CO^2. Counts were expressed in log CFU per pair of lungs. PBS and PBS-liposomes were used as controls. A second experiment to study the bactericidal effect of the liposomal tobramycin preparation, produced according to the present invention, was carried out as for Table 4 with the following modifications: 1) liposomes were prepared with a 15:1 molar ratio of DPPC:DMPG (formula no. 3); and 2) only two doses of 240 μg of free or liposome-encapsulated tobramycin were administered to the rats.

[3] = tested on: Xanthomonas maltophilia; experiment: In vitro bactericidal activity, viable bacterial counts in proteose peptone; format: cell-based; details: free tobramycin 3,12 μg/ml, liposomes entrapped tobramycin 3,08 μg/ml
Method: To evaluate the bactericidal efficacy of the liposonal tobramycin formulation produced according to the present invention (DPPC/DMPG), in vitro tests were performed against different clinical strains: […] To culture tubes containing proteose peptone (29 ml) a minimal number of 10^8 CFU of bacteria in logarithmic phase (1 ml) and of one of the following preparations (100 μl) were added at time zero: free tobramycin, control liposomes or PBS. Experiments were done in triplicate. At times 1, 3, 6, and 16 hours following the addition of antibiotic or controls, 2 ml of samples were collected and serial 10-fold dilutions were made and spread in triplicate on proteose peptone agar plates for gram negative strains and on […] for S. aureus. CFU were counted after 24-hour and 48-hourS incubations at 37° C. under 5% CO2. Counts were expressed in log CFU per ml of culture media.

[4] = tested on: Pseudomonas aeruginosa (strain 429); experiment: MIC of clinical strain; format: cell-based
[5] = tested on: Burkholderia cepacia (strain ID-28369); experiment: MIC of clinical strain; format: cell-based
[6] = tested on: Escherichia coli (strain 1061 mn 88); experiment: MIC of clinical strain; format: cell-based
[7] = tested on: Staphylococcus aureus (strain LSPQ 2499); experiment: MIC of clinical strain; format: cell-based
[8] = tested on: Xanthomonas maltophilia; experiment: MIC of clinical strain; format: cell-based; details: Stenotrophomonas maltophilia
[9] = two doses of 240 μg intratracheally, '<significant count' = none or only rare cfu (0 to 6) on plates

Row | Compound | phase transition temperature (Tc) [1] [°C] | log cfu/pair of lungs ([2]; three doses (600 μg) intratracheally at intervals of 16 h, '<significant count' = none or only rare cfu (0 to 4) on plates) | cfu/pair of lungs ([2]; three doses (600 μg) intratracheally at intervals of 16 h, '<significant count' = none or only rare cfu (0 to 4) on plates, counts <30 not statistically significant) | cfu/pair of lungs [2, 9] | log cfu/pair of lungs [2, 9] | Viable bacterial counts (cfu) ([3]; 0 h) | Viable bacterial counts (cfu) ([3]; 1 h after addition) | Viable bacterial counts (cfu) ([3]; 3 h after addition) | Viable bacterial counts (cfu) ([3]; 6 h after addition) | Viable bacterial counts (cfu) ([3]; 16 h after addition) | MIC [4] [µg/mL] | MIC [5] [µg/mL] | MIC [6] [µg/mL] | MIC [7] [µg/mL] | MIC [8] [µg/mL]
1 | soybean 1-α-phosphatidylinositol, sodium salt [PI] | 23 |  |  |  |  |  |  |  |  |  |  |  |  |  | 
2 | NC[C@H]1O[C@H](O[C@H]2[C@H](O)[C@@H](O[C@H]3O[C@H](CO)[C@@H](O)[C@H](N)[C@H]3O)[C@H](N)C[C@@H]2N)[C@H](N)C[C@@H]1O [Free tobramycin, tobramycin] |  | 7.10 log cfu/pair of lungs | 1.25 × 10^7 cfu/pair of lungs | 1.07 × 10^6 cfu/pair of lungs | 6.03 log cfu/pair of lungs | 3,7 × 10^10 cfu | 3,00 × 10^12 cfu | 8,20 × 10^14 cfu | 7,80 × 10^16 cfu | 8,57 × 10^18 cfu | ≥ 60 | ≥ 27 | ≥ 5 | ≥ 9 | > 5
3 | CCCCCCCCCCCCCCCCOC[C@H](COP(=O)([O-])OCC[N+](C)(C)C)OCCCCCCCCCCCCCCCC [DHPC, 1,2-di-o-hexadecyl-sn-glycero-3-phosphocholine] | 42 |  |  |  |  |  |  |  |  |  |  |  |  |  | 
